Like-named read-outs stand apart in the source and are kept apart here. Marks after values point to notes of the source that are not given here.
Columns and labels:
Aβ1-42 peptide = Aβ1-42 peptide (Homo sapiens, UniProt P05067); test: Thioflavin T (Thio T)-assay of Aβ aggregation; assay type: biochemical
Tg2576 mice = test: Contextual fear conditioning in Tg2576 mice; assay type: in vivo, mouse; details: 9-month-old Tg2576 mice, feeding pellets for 12 weeks
Experimental: Groups of Tg2576 mice overexpressing the 695-amino acid isoform of human amyloid precursor protein containing a Lys670→Asn, Met671→Leu mutation (Hsiao, K. Science 1996) and wildtype control mice (13-21 per phenotype) were conditioned on day 1 by placing a subject mouse in a contextual fear conditioning chamber (Med Associates, […], Vt.). Exploration was allowed for 2 min, and an auditory cue was presented for 15 s accompanied by an electrical foot shock during the last 2 s. This procedure was repeated and mice were removed from the chamber after 30 s. Twenty hours later, mice were returned to the chamber in which conditioning occured, and their freezing behaviour (fear) was monitored. Freezing was defined as the lack of all movements, except those required for breathing (Comery, T. A., et al. Journal of Neuroscience, 2005). Data were analysed by two-way ANOVA in the S programming environment, followed by Fischer's least significant difference (LSD) pairwise comparison of group means at the p<0.05 significance level.
The contextual fear conditioning paradigm is a form of Pavlovian learning in which an association is made between stimuli and their aversive consequences. Studies of brain function implicate the amygdala in regulating fear, and the hippocampus in regulating the learning of the context in which a fearful event occurred.
The brain circuitry in wild type mice is intact and they are better able to associate an aversive foot shock with the context or environment in which the shock took place. They therefore show more freezing. Transgenic Alzheimer mice have compromised brain circuitry due to the toxic effects of amyloid-beta protein. They are therefore less able to associate an aversive shock with a context and show less freezing.
A substance that reverses the toxic effects of amyloid-beta in Alzheimer's mice will help in reconsolidating the impaired brain circuitry so that these mice begin to show more fear (freezing behavior) after treatment. This paradigm is therefore a robust method for showing the effect of drug candidate molecules in Alzheimer mice.

in vitro = details: human
[1] = Detection of compounds in brain after in vivo administration; details: for Detection in brain after i.v. administration: B6C3 mouse, 5 mg/kg body weight i.v. once, brain samples; for Detection in brain after oral administration, feeding pellet preparation / Detection in brain after oral administration, oral gavage administration: mouse; for Detection in brain after oral administration, feeding pellet preparation: brain samples after one week feeding; for Detection in brain after oral administration, oral gavage administration: five to seven doses over two or three days, sampling 30 min. after last application
5XFAD mice = test: Nest building behaviour in 5XFAD mice; assay type: in vivo, mouse
Experimental: 3a: Nestlet usage; 3b: Nestlet quality score.
One hour before the dark phase, mice were housed individually in a cage with wood-chip bedding material. Each mouse was given 3 g of nestlet material made of compressed cotton (Lillico Biotech, UK). The amount of intact, i.e. non-used, nesting material was weighed after 16 hours and nest building was assessed using the following rating scale (Deacon et al., 2006, Tomida et al., 2009): 1, >90% intact; 2, 50-90% intact; 3, 10-50% intact: 4, 0-10% intact, but flat nest; 5, 0-10%, with nests higher than the mice. The amount of intact nesting material was weighed. The data were non-normally distributed.
Non normally distributed data were analyzed by a Kruskal Wallis test. A post-hoc test using Mann-Whitney tests with Bonferroni corrections was then used for group comparisons.
Nest building is one of several species-typical behavior in mice seen in semi-naturalistic situations. […] Alzheimer's disease in 5XFAD mice will damage these areas, leading to memory impairments in some standard cognitive tests, and to an impairment of species-typical behaviors like nesting.
The brain circuitry of wild type mice is intact so they show robust nest building behavior. Transgenic 5XFAD on the other hand have impaired brain circuitry due to the noxious effects of human amyloid-beta protein. They are therefore less able to fulfill this important house-keeping species typical behavior (Deacon R M. (2006): Assessing nest building in mice. Nat Protoc. 2006; 1(3):1117-9; Tomida et al (2009): Usp46 is a quantitative trait gene regulating mouse immobile behavior in the tail suspension and forced swimming tests. Nat Genet. 2009 June; 41(6):688-95. Epub 2009 May 24.).

[2] = parameters: Detection in brain after i.v. administration: key to the marks not given beside the values; details: mouse, in vivo
[3] = 30 μM Aβ1-42 peptide, 48 h at 37° C., vs DMSO control, read-out: ThioT: IC50
[4] = transgenic and wild-type mice vs control mice

Chain of Aβ1-42 peptide (P05067 672-713): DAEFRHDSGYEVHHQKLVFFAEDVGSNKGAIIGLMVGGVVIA

Row | SMILES | IC50 (Aβ1-42 peptide; [3]) | Contextual memory (freezing behaviour) (Tg2576 mice) | IC50 at 48 h (in vitro) | Detection in brain after i.v. administration [1] | Detectability after oral administration ([1]; mouse brain, oral gavage or feeding pellets) | Detection in brain after oral administration, feeding pellet preparation [1] | Detection in brain after oral administration, oral gavage administration [1] | Nest building behavior (5XFAD mice; 5XFAD mice, pelleted mouse chow for 8.5 months) | Nest building behavior in transgenic mice (5XFAD mice; transgenic 5XFAD mice, higher concentration (625 mg/kg feed) vs control mice) | Nest building behavior (nestlet usage, FIG. 3a) (5XFAD mice; [4]) | Nestlet quality score (FIG. 3b) (5XFAD mice; [4]) | IC50 (Aβ1-42 peptide) | Detection in brain after i.v. administration ([2]; iv, 5 mg/kg) | Detectability after oral administration ([2]; po) | Detection in brain after oral administration, feeding pellet preparation ([2]; po) | Detection in brain after oral administration, oral gavage administration ([2]; po) | IC50 (in vitro)
1 | c1ccc(N=Nc2ccc(Nc3ccccc3)cc2)cc1 [Compound 1, N-phenyl-4-(phenyldiazenyl)aniline] | 4.5 µM | improvement | > 30 µM | ++ | excellent | ++^a), b) | ++^a), b) |  |  |  |  |  |  |  |  |  | 
2 | O=[N+]([O-])c1ccc(N=Nc2ccc(Nc3ccccc3)cc2)cc1 [Compound 2, 4-((4-nitrophenyl)diazenyl)-N-phenylaniline] | 1.7 µM | improvement | > 100 µM | ++ |  | ++^a), b) | ++^a), b) | improved | significantly enhanced | increased | increases |  |  |  |  |  | 
3 | CN(C)c1ccc(N=Nc2ccc(N)cc2)cc1 [Compound 9, 4-((4-aminophenyl)diazenyl)-N,N-dimethylaniline] |  | improvement |  |  |  |  |  |  |  |  |  | 2.1 µM | ++ | excellent | ++^a)/+^b) | ++^a)/+^b) | > 100 µM

Reference: US8974768B2, “Azo compounds reducing formation and toxicity of amyloid beta aggregation intermediates” (Max-Delbrueck-Centrum fuer Molekulare Medizin, priority 2010, dated 2015)
